{
  "source": "patent US9061041B2",
  "about": "“2′-substituted nucleoside derivatives and methods of use thereof for the treatment of viral diseases” (Merck Sharp & Dohme Corp., priority 2011, dated 2015)",
  "key": {"replicon cells (1b-Con1) [1]": {"tested_on": "replicon cells (1b-Con1)", "test": "Replicon activity assay (1b-Con1)", "type": "cell-based, HCV", "settings": "Hepatitis C virus, 72 h, three days post-dosing"}, "replicon cells (1b-Con1) [2]": {"tested_on": "replicon cells (1b-Con1)", "test": "Cytotoxicity MTS assay in replicon cells", "settings": "CC50, MTS assay, three days post dosing"}, "HCV replicon (1b) cells": {"tested_on": "HCV replicon (1b) cells", "test": "Cell-based HCV replicon assay", "method": "To measure cell-based anti-HCV activity of selected compounds of the present invention, replicon cells were seeded at 5000 cells/well in 96-well collagen I-coated Nunc plates in the presence of the test compound. […]. Cells were harvested on day 3 by the addition of 1× cell lysis buffer (Ambion cat #8721). The replicon RNA level was measured using real time PCR (Taqman assay). The amplicon was located in 5B. The PCR primers were: 5B.2F, […] (SEQ ID. NO. 1); 5B.2R, […] (SEQ ID. NO. 2); the probe sequence was FAM-labeled […] (SEQ ID. NO. 3). GAPDH RNA was used as endogenous control and was amplified in the same reaction as NS5B (multiplex PCR) using primers and VIC-labeled probe recommended by the manufacturer (PE Applied Biosystem). The real-time RT-PCR reactions were run on ABI PRISM 7900HT Sequence Detection System using the following program: 48° C. for 30 minutes, 95° C. for 10 minutes, 40 cycles of 95° C. for 15 sec, 60° C. for 1 minute. The ΔCT values (CT5B-CTGAPDH) were plotted against the concentration of test compound and fitted to the sigmoid dose-response model using XLfit4 (MDL). […]; Alternatively, to quantitate the absolute amount of replicon RNA, a standard curve was established by including serially diluted T7 transcripts of replicon RNA in the Taqman assay. All Taqman reagents were from PE Applied Biosystems. Such an assay procedure was described in detail in e.g. Malcolm et al., Antimicrobial Agents and Chemotherapy 50: 1013-1020 (2006)."}, "[3]": {"settings": "replicon RNA level by real time PCR, cells harvested on day 3"}, "[4]": {"settings": "Hepatitis C virus, 72 h, replicon RNA level by real time PCR, cells harvested on day 3"}},
  "note": "Like-named read-outs stand apart in the source and are kept apart here.",
  "data": [
    {"smiles": "COc1nc(N)nc2c1ncn2[C@@H]1O[C@H](COP(=O)(N[C@@H](C)C(=O)OCC(C)(C)C)Oc2ccccc2)C(O)[C@@]1(C)N", "note": "(stereo partly drawn)", "values": [
      {"measurement": "EC50", "setting": "replicon cells (1b-Con1) [1]", "value": 0.9, "unit": "µM"},
      {"measurement": "Cytotoxicity", "setting": "replicon cells (1b-Con1) [2]", "value": ">100", "unit": "µM"}
    ]},
    {"smiles": "COc1nc(N)nc2c1ncn2[C@@H]1O[C@H](COP(=O)(N[C@@H](C)C(=O)OC(C)C)Oc2ccccc2)C(O)[C@@]1(C)N", "note": "(single isomer, unassigned) [Compound 23]", "values": [
      {"measurement": "EC50", "setting": "HCV replicon (1b) cells; [3]", "value": "> 100", "unit": "µM"}
    ]},
    {"smiles": "C#C[C@]1(C)[C@H](O)[C@@H](COP(=O)(N[C@@H](C)C(=O)OC(C)C)Oc2ccccc2)O[C@H]1n1ccc(=O)[nH]c1=O", "note": "(stereo partly drawn)", "values": [
      {"measurement": "EC50", "setting": "replicon cells (1b-Con1) [1]", "value": 2.3, "unit": "µM"},
      {"measurement": "Cytotoxicity", "setting": "replicon cells (1b-Con1) [2]", "value": ">100", "unit": "µM"}
    ]},
    {"smiles": "CC(C)COC(=O)[C@H](C)NP(=O)(OC[C@H]1O[C@@H](n2ccc(N)nc2=O)[C@](C)(N)[C@@H]1O)Oc1ccccc1", "note": "(single isomer, unassigned) [Compound 64]", "values": [
      {"measurement": "EC50", "setting": "HCV replicon (1b) cells; [4]", "value": 6.6, "unit": "µM"}
    ]},
    {"smiles": "CCOc1nc(N)nc2c1ncn2[C@@H]1O[C@H](COP(=O)(N[C@@H](C)C(=O)OC)Oc2ccccc2)C(O)[C@@]1(C)N", "note": "(stereo partly drawn) [drawing 243]", "values": [
      {"measurement": "EC50", "setting": "replicon cells (1b-Con1) [1]", "value": 2.5, "unit": "µM"},
      {"measurement": "Cytotoxicity", "setting": "replicon cells (1b-Con1) [2]", "value": ">100", "unit": "µM"}
    ]},
    {"smiles": "CC(C)OC(=O)[C@H](C)NP(=O)(OC[C@H]1O[C@@H](n2ccc(N)nc2=O)[C@](C)(N)C1O)Oc1ccccc1", "note": "(stereo partly drawn)", "values": [
      {"measurement": "EC50", "setting": "replicon cells (1b-Con1) [1]", "value": 5.5, "unit": "µM"},
      {"measurement": "Cytotoxicity", "setting": "replicon cells (1b-Con1) [2]", "value": ">100", "unit": "µM"}
    ]},
    {"smiles": "C[C@@]1(C(N)=O)[C@H](O)[C@@H](CO)O[C@H]1n1ccc(N)nc1=O", "note": "[Compound 85]", "values": [
      {"measurement": "EC50", "setting": "HCV replicon (1b) cells; [3]", "value": 45, "unit": "µM"}
    ]},
    {"smiles": "COc1nc(N)nc2c1ncn2[C@@H]1O[C@H](COP(=O)(N[C@@H](C)C(=O)OC(C)C)Oc2ccccc2)C(O)[C@@]1(C)N", "note": "(single isomer, unassigned) [Compound 22]", "values": [
      {"measurement": "EC50", "setting": "HCV replicon (1b) cells; [3]", "value": 2.6, "unit": "µM"}
    ]},
    {"smiles": "COc1nc(N)nc2c1ncn2[C@@H]1O[C@@H]2COP(=O)(OC(C)C)O[C@H]2[C@@]1(C)N", "note": "(stereo partly drawn) [Compound 98]", "values": [
      {"measurement": "EC50", "setting": "HCV replicon (1b) cells; [3]", "value": 43, "unit": "µM"}
    ]},
    {"smiles": "C[C@@]1(N)[C@H](O)[C@@H](CO)O[C@H]1n1cnc2c(N3CCC3)nc(N)nc21", "note": "[Compound 17]", "values": [
      {"measurement": "EC50", "setting": "HCV replicon (1b) cells; [4]", "value": "> 100", "unit": "µM"}
    ]},
    {"smiles": "CC(C)OC(=O)[C@H](C)NP(=O)(OC[C@H]1O[C@@H](n2ccc(=O)[nH]c2=O)[C@](C)(N)[C@@H]1O)Oc1ccccc1", "note": "(stereo partly drawn) [drawing 239]", "values": [
      {"measurement": "EC50", "setting": "replicon cells (1b-Con1) [1]", "value": 3.1, "unit": "µM"},
      {"measurement": "Cytotoxicity", "setting": "replicon cells (1b-Con1) [2]", "value": ">100", "unit": "µM"}
    ]},
    {"smiles": "CC(C)OC(=O)[C@H](C)NP(=O)(OC[C@H]1O[C@@H](n2ccc(=O)[nH]c2=O)[C@](C)(N)[C@@H]1O)Oc1ccccc1", "note": "(stereo partly drawn) [Compound 24]", "values": [
      {"measurement": "EC50", "setting": "HCV replicon (1b) cells; [3]", "value": 5, "unit": "µM"}
    ]},
    {"smiles": "C[C@H](NP(=O)(OC[C@H]1O[C@@H](n2ccc(N)nc2=O)[C@](C)(N)C1O)Oc1ccccc1)C(=O)OCC(C)(C)C", "note": "(single isomer, unassigned) [Compound 59]", "values": [
      {"measurement": "EC50", "setting": "HCV replicon (1b) cells; [3]", "value": 11, "unit": "µM"}
    ]},
    {"smiles": "CCOc1nc(N)nc2c1ncn2[C@@H]1O[C@H](CO)[C@@H](O)[C@@]1(C)N", "note": "[Compound 10]", "values": [
      {"measurement": "EC50", "setting": "HCV replicon (1b) cells", "value": 29, "unit": "µM"}
    ]},
    {"smiles": "COc1nc(N)nc2c1ncn2[C@@H]1O[C@@H]2COP(=O)(OC(C)C)O[C@H]2[C@@]1(C)N", "note": "(stereo partly drawn) [drawing 240]", "values": [
      {"measurement": "EC50", "setting": "replicon cells (1b-Con1) [1]", "value": 43.7, "unit": "µM"},
      {"measurement": "Cytotoxicity", "setting": "replicon cells (1b-Con1) [2]", "value": ">100", "unit": "µM"}
    ]},
    {"smiles": "CCOc1nc(N)nc2c1ncn2[C@@H]1O[C@H](COP(=O)(N[C@@H](C)C(=O)OCC(C)(C)C)Oc2ccccc2)C(O)[C@@]1(C)N", "note": "(single isomer, unassigned) [Compound 54]", "values": [
      {"measurement": "EC50", "setting": "HCV replicon (1b) cells; [3]", "value": 1.5, "unit": "µM"}
    ]},
    {"smiles": "C[C@H](NP(=O)(OC[C@H]1O[C@@H](n2ccc(=O)[nH]c2=O)[C@](C)(N)C1O)Oc1ccccc1)C(=O)OCC(C)(C)C", "note": "(stereo partly drawn)", "values": [
      {"measurement": "EC50", "setting": "replicon cells (1b-Con1) [1]", "value": 0.7, "unit": "µM"},
      {"measurement": "Cytotoxicity", "setting": "replicon cells (1b-Con1) [2]", "value": ">100", "unit": "µM"}
    ]},
    {"smiles": "C[C@@]1(Cl)[C@H](O)[C@@H](CO)O[C@H]1n1ccc(N)nc1=O", "note": "[Compound 6]", "values": [
      {"measurement": "EC50", "setting": "HCV replicon (1b) cells", "value": 10, "unit": "µM"}
    ]},
    {"smiles": "C[C@@]1(N)[C@@H]2OP(=O)(OC3CCC3)OC[C@H]2O[C@H]1n1ccc(N)nc1=O", "note": "(stereo partly drawn) [drawing 247]", "values": [
      {"measurement": "EC50", "setting": "replicon cells (1b-Con1) [1]", "value": 2.8, "unit": "µM"},
      {"measurement": "Cytotoxicity", "setting": "replicon cells (1b-Con1) [2]", "value": ">50", "unit": "µM"}
    ]},
    {"smiles": "COC(=O)[C@H](C)NP(=O)(OC[C@H]1O[C@@H](n2ccc(N)nc2=O)[C@](C)(SC)[C@@H]1O)Oc1ccccc1", "note": "(stereo partly drawn) [Compound 7]", "values": [
      {"measurement": "EC50", "setting": "HCV replicon (1b) cells; [3]", "value": 29, "unit": "µM"}
    ]},
    {"smiles": "CCCCOC(=O)[C@H](C)NP(=O)(OC[C@H]1O[C@@H](n2cnc3c(OCC)nc(N)nc32)[C@](C)(SC)[C@@H]1O)Oc1cccc2ccccc12", "note": "(stereo partly drawn) [Compound 44]", "values": [
      {"measurement": "EC50", "setting": "HCV replicon (1b) cells; [4]", "value": 24, "unit": "µM"}
    ]},
    {"smiles": "CC(=O)N[C@]1(C)[C@H](O)[C@@H](CO)O[C@H]1n1ccc(N)nc1=O", "note": "[Compound 9]", "values": [
      {"measurement": "EC50", "setting": "HCV replicon (1b) cells", "value": 100, "unit": "µM"}
    ]},
    {"smiles": "CCOC(=O)[C@H](C)NP(=O)(OC[C@H]1O[C@@H](n2cnc3c(OC)nc(N)nc32)[C@](C)(N)[C@@H]1O)Oc1ccccc1", "note": "(stereo partly drawn) [drawing 248]", "values": [
      {"measurement": "EC50", "setting": "replicon cells (1b-Con1) [1]", "value": 0.1, "unit": "µM"},
      {"measurement": "Cytotoxicity", "setting": "replicon cells (1b-Con1) [2]", "value": ">100", "unit": "µM"}
    ]},
    {"smiles": "CCOc1nc(N)nc2c1ncn2[C@@H]1O[C@H](COP(=O)(N[C@@H](C)C(=O)OC)Oc2ccccc2)C(O)[C@@]1(C)N", "note": "(stereo partly drawn) [Compound 20]", "values": [
      {"measurement": "EC50", "setting": "HCV replicon (1b) cells; [3]", "value": 2.5, "unit": "µM"}
    ]}
  ]
}
